Measurements taken from patent US20250195483A1, “SPIRO PIPERIDINE DERIVATIVES AS INHIBITORS OF APOL1 AND METHODS OF USING SAME” (Vertex Pharmaceuticals Incorporated, priority 2022, published 2025).

Target: T1, APOL1 (Homo sapiens, UniProt O14791)
T1 sequence (O14791 1-398): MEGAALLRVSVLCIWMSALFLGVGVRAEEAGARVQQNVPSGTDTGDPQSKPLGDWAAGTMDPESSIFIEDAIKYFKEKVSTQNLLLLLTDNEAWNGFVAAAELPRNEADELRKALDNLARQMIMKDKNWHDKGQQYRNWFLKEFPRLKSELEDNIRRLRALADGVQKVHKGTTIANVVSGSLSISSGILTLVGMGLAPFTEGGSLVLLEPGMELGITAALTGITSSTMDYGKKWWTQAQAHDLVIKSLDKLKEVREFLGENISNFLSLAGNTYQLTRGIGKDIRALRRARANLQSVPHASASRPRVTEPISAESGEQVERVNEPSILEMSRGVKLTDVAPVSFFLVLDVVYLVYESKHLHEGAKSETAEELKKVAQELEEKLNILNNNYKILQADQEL
Test: MultiTox-Fluor Multiplex Cytotoxicity Assay, tet-inducible APOL1 T-REx-HEK293 cells (G0, G1 or G2 clone not specified for Table 20)
Format: cell-based
Conditions: tet-induced, 24 hours with compound, ratio of dead to live cells, read-out: IP50 (i.e., IC50 for cell proliferation)
Procedure, shortened: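 HEK293 T-REx cells with tet-inducible APOL1 G0, G1 or G2 clone, 23,400/well, treated with tetracycline plus compound (top 10 μM, 10-point 3-fold, duplicate) for 24 h at 37° C. MultiTox-Fluor dead/live fluorescence ratio, normalized to no-tet (100% viability) and 50 ng/mL tet (0% viability) controls, then curve-fitted.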

Going from `NC(=O)C1OC2(CCN(Cc3cnn(-c4ccccc4)c3)CC2)c2cc(C(F)(F)F)ccc21` (stereo not drawn) [Compound 197] to `O=C(O)C1OC2(CCN(Cc3cnn(-c4ccccc4)c3)CC2)c2cc(Cl)ccc21` (stereo not drawn) [Compound 192, 5-chloro-1′-[(1-phenylpyrazol-4-yl)methyl]spiro[1H-isobenzofuran-3,4′-piperidine]-1-carboxylic acid], the IC50 rises from ≤ 50 nM to ≥ 500 nM. The first is the more potent here.

`Cc1ccc(CN2CCC3(CC2)OC(C(N)=O)c2ccc(Cl)cc23)nn1` (stereo not drawn) [Compound 218] and `Cc1cccc(CN2CCC3(CC2)OC(C(N)=O)c2ccc(Cl)cc23)n1` (stereo not drawn) [Compound 268] cannot be ordered by IC50: ≥ 500 nM for the first, ≥ 500 nM for the second.

`CCNC(=O)NCCn1cc(CN2CC[C@]3(C[C@@H]2C)OCCc2ccc(Cl)cc23)nn1` [Compound 173] and `C[C@H]1C[C@@]2(CCN1Cc1cn(CCO)nn1)OCCc1ccc(Cl)cc12` [Compound 141, 2-[4-[[(1R,2′S)-7-chloro-2′-methyl-spiro[isochromane-1,4′-piperidine]-1′-yl]methyl]triazol-1-yl]ethanol] cannot be ordered by IC50: ≤ 50 nM for the first, ≤ 50 nM for the second.

`CCO/N=C(\C)c1ccc(CN2CCC3(CC2)C(=O)Nc2ccc(Cl)cc23)cn1` [Compound 12] and `CS(=O)(=O)CCn1cc(CN2CCC3(CC2)C(=O)Nc2ccc(Cl)cc23)cn1` [Compound 1, 5-chloro-1′-[[1-(2-methylsulfonylethyl)pyrazol-4-yl]methyl]spiro[indoline-3,4′-piperidine]-2-one] fall in the same range of IC50: 50 to 500 nM for the first, 50 to 500 nM for the second.

Going from `CC(C)(C)c1ncc(CN2CCC3(CC2)OC(C(N)=O)c2ccc(Cl)cc23)cn1` (stereo not drawn) [Compound 267] to `Cc1ccc(CN2CCC3(CC2)OC(C(N)=O)c2ccc(Cl)cc23)cn1` (stereo not drawn) [Compound 227], the IC50 falls from ≥ 500 nM to ≤ 50 nM. The second is the more potent here.

`CS(=O)(=O)CCn1cc(CN2CCC3(CC2)C(=O)Nc2ccc(C#N)cc23)cn1` [Compound 30] and `CS(=O)(=O)CCn1cc(CN2CCC3(CC2)C(=O)Nc2ccc(Br)cc23)cn1` [Compound 22] cannot be ordered by IC50: ≥ 500 nM for the first, 50 to 500 nM for the second.

First: CC1(n2cc(CN3CCC4(CC3)OC(C(N)=O)c3ccc(Cl)cc34)cn2)CCS(=O)(=O)C1 (stereo not drawn) [Compound 241]
Second: NC(=O)C1OC2(CCN(Cc3cnn(CC(O)C4(O)CCC4)c3)CC2)c2cc(Cl)ccc21 (stereo not drawn) [Compound 280, 5-chloro-1′-[[1-[2-hydroxy-2-(1-hydroxycyclobutyl)ethyl]pyrazol-4-yl]methyl]spiro[1H-isobenzofuran-3,4′-piperidine]-1-carboxamide]
The IC50 of the first is higher: ≥ 500 nM for the first, ≤ 50 nM for the second. The second is the more potent here.

`Cc1ccc2c(c1)C1(CCN(Cc3cnn(CC4(C)COC4)c3)CC1)C(=O)N2` [Compound 24] and `O=C1Nc2ccc(CC(F)F)cc2C12CCN(Cc1cn[nH]c1)CC2` [Compound 35] cannot be ordered by IC50: ≥ 500 nM for the first, ≥ 500 nM for the second.

`Cc1c(CN2CCC3(CC2)OC(C(N)=O)c2ccc(Cl)cc23)cnn1-c1ccccc1` (stereo not drawn) [Compound 213] and `NC(=O)C1OC2(CCN(Cc3ccc[nH]c3=O)CC2)c2cc(Cl)ccc21` (stereo not drawn) [Compound 270] cannot be ordered by IC50: 50 to 500 nM for the first, ≥ 500 nM for the second.

`C[C@H]1C[C@@]2(CCN1Cc1cn(Cc3ccc(C(N)=O)o3)nn1)OCCc1ccc(Cl)cc12` [Compound 172] and `CC(O)Cn1cc(CN2CC[C@]3(C[C@@H]2C)OCCc2ccc(Cl)cc23)nn1` (stereo partly drawn) [Compound 144] cannot be ordered by IC50: ≤ 50 nM for the first, ≤ 50 nM for the second.

`CC(=O)N1CC2(CCN(Cc3cnn(C)c3)CC2)c2cc(Cl)ccc21` [Compound 314, 1-[5-chloro-1′-[(1-methylpyrazol-4-yl)methyl]spiro[indoline-3,4′-piperidine]-1-yl]ethenone] and `CN1C(=O)C2(CCN(Cc3cnn(C)c3)CC2)c2cc(Cl)ccc21` [Compound 39] cannot be ordered by IC50: ≥ 500 nM for the first, 50 to 500 nM for the second.

`NC(=O)c1cccc(CN2CCC3(CC2)OC(C(N)=O)c2ccc(Cl)cc23)c1` (stereo not drawn) [Compound 266] and `NC(=O)c1cnc(CN2CCC3(CC2)OC(C(N)=O)c2ccc(Cl)cc23)cn1` (stereo not drawn) [Compound 245] cannot be ordered by IC50: ≥ 500 nM for the first, 50 to 500 nM for the second.

`NC(=O)C1OC2(CCN(Cc3cnn(C4CCOCC4)c3)CC2)c2cc(Cl)ccc21` (stereo not drawn) [Compound 235] and `Cc1noc2ncc(CN3CCC4(CC3)OC(C(N)=O)c3ccc(Cl)cc34)cc12` (stereo not drawn) [Compound 237] cannot be ordered by IC50: ≤ 50 nM for the first, 50 to 500 nM for the second.

`C[C@H]1C[C@@]2(CCN1Cc1cn(CC(O)C(C)(C)O)nn1)OCCc1ccc(Cl)cc12` (stereo partly drawn) [Compound 157] and `C[C@H]1C[C@@]2(CCN1Cc1cn(CC(C)(C)CS(N)(=O)=O)nn1)OCCc1ccc(Cl)cc12` [Compound 158] cannot be ordered by IC50: ≤ 50 nM for the first, ≤ 50 nM for the second.

`C[C@H]1C[C@@]2(CCN1Cc1cnn(-c3ccccn3)c1)OCCc1ccc(Cl)cc12` [Compound 117] and `CCn1cc(CN2CC[C@]3(C[C@@H]2C)OCCc2ccc(Cl)cc23)cn1` [Compound 121] cannot be ordered by IC50: ≤ 50 nM for the first, ≤ 50 nM for the second.

`Cc1nn(CCO)cc1Cn1cc(CN2CC[C@]3(C[C@@H]2C)OCCc2ccc(Cl)cc23)nn1` [Compound 170] and `C[C@H]1C[C@@]2(CCN1Cc1cn(CCc3nccc(=O)[nH]3)nn1)OCCc1ccc(Cl)cc12` [Compound 183] cannot be ordered by IC50: ≤ 50 nM for the first, 50 to 500 nM for the second.

`CNC(=O)C1OC2(CCN(Cc3cnn(CCS(C)(=O)=O)c3)CC2)c2cc(Cl)ccc21` (stereo not drawn) [Compound 210, 5-chloro-N-methyl-1′-[[1-(2-methylsulfonylethyl)pyrazol-4-yl]methyl]spiro[1H-isobenzofuran-3,4′-piperidine]-1-carboxamide] and `C[C@H]1CC2(CCN1Cc1cnn(CCS(C)(=O)=O)c1)CC(O)c1ccc(Cl)cc12` (single isomer, unassigned) [Compound 306, (2′S)-5-chloro-2′-methyl-1′-[[1-(2-methylsulfonylethyl)pyrazol-4-yl]methyl]spiro[indane-3,4′-piperidine]-1-ol] cannot be ordered by IC50: 50 to 500 nM for the first, ≤ 50 nM for the second.

`O=C1N(CCO)c2ccc(Cl)cc2C12CCN(Cc1cn[nH]c1)CC2` [Compound 46] and `CCc1ccc2c(c1)C1(CCN(Cc3cnn(CCS(C)(=O)=O)c3)CC1)C(=O)N2C` [Compound 84] cannot be ordered by IC50: 50 to 500 nM for the first, ≥ 500 nM for the second.

`Cc1ccc2c(c1)C1(CCN(Cc3cnn(CCS(C)(=O)=O)c3)[C@@H](C)C1)CC2O` (stereo partly drawn) [Compound 308, (2′S)-2′,5-dimethyl-1′-[[1-(2-methylsulfonylethyl)pyrazol-4-yl]methyl]spiro[indane-3,4′-piperidine]-1-ol] and `Cc1ccc2c(c1)[C@]1(CCN(Cc3cnn(CC(C)(CO)CO)c3)[C@@H](C)C1)OCC2` [Compound 100] cannot be ordered by IC50: ≤ 50 nM for the first, ≤ 50 nM for the second.

`C[C@H]1C[C@@]2(CCN1Cc1ccncc1)OCCc1ccc(Cl)cc12` [Compound 118] and `C[C@H]1C[C@@]2(CCN1Cc1cnn(C)c1)OCC(O)c1ccc(Cl)cc12` (stereo partly drawn) [Compound 134] cannot be ordered by IC50: ≤ 50 nM for the first, ≤ 50 nM for the second.

Going from `C[C@H]1C[C@@]2(CCN1Cc1cn(CC(=O)Nc3cn[nH]c3)nn1)OCCc1ccc(Cl)cc12` [Compound 186] to `Cc1cc(C(=O)N[C@H]2C[C@H](Cn3cc(CN4CCC5(CC4)C(=O)N(C)c4ccc(Cl)cc45)cn3)C2)on1` [Compound 70], the IC50 rises from ≤ 50 nM to ≥ 500 nM.
